From US20100267561A1, “HERBICIDAL PYRIDAZINONE DERIVATIVES” (priority 2007, published 2010)

Legend:
Format in all cases: in vivo
[1] = system: ducksalad (Heteranthera limosa); experiment: Test B flooded paddy test plant response
Procedure, shortened: (§1)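 Rice, umbrella sedge, ducksalad and barnyardgrass at 2-leaf stage; pots flooded to 3 cm, compounds applied into paddy water, depth held throughout. Greenhouse 13 to 15 days, then visual rating vs untreated controls on 0–100 scale (0 no effect, 100 complete control); dash means no test result.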

rice (Oryza sativa) = experiment: Test B flooded paddy test plant response
Procedure, shortened: as §1

[2] = system: umbrella sedge (Cyperus difformis); experiment: Test B flooded paddy test plant response
Procedure, shortened: as §1

[3] = system: Italian ryegrass (Lolium multiflorum); experiment: Test C pre-/postemergence plant response
Procedure, shortened: (§2)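 Seeds are planted and sprayed preemergence, while established plants at the 1- to 4-leaf stage (2 to 18 cm) receive postemergence sprays of the same surfactant-containing, non-phytotoxic solvent formulation. After 15 to 25 days under controlled conditions, injury is scored visually from 0 (no effect) to 100 (complete control).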

[4] = system: annual bluegrass (Poa annua); experiment: Test C pre-/postemergence plant response
Procedure, shortened: as §2

[5] = system: blackgrass (Alopecurus myosuroides); experiment: Test C pre-/postemergence plant response
Procedure, shortened: as §2

[6] = system: canarygrass (Phalaris minor); experiment: Test C pre-/postemergence plant response; conditions: Preemergence
Procedure, shortened: as §2

[7] = system: downy bromegrass (Bromus tectorum); experiment: Test C pre-/postemergence plant response
Procedure, shortened: as §2

[8] = system: green foxtail (Setaria viridis); experiment: Test C pre-/postemergence plant response
Procedure, shortened: as §2

[9] = system: pigweed (Amaranthus retroflexus); experiment: Test C pre-/postemergence plant response
Procedure, shortened: as §2

[10] = system: spring barley (Hordeum vulgare); experiment: Test C pre-/postemergence plant response
Procedure, shortened: as §2

[11] = system: spring wheat (Triticum aestivum); experiment: Test C pre-/postemergence plant response
Procedure, shortened: as §2

[12] = system: wild mustard (Sinapis arvensis); experiment: Test C pre-/postemergence plant response
Procedure, shortened: as §2

wild oat (Avena fatua) = experiment: Test C pre-/postemergence plant response
Procedure, shortened: as §2

[13] = system: windgrass (Apera spica-venti); experiment: Test C pre-/postemergence plant response
Procedure, shortened: as §2

[14] = system: winter barley (Hordeum vulgare); experiment: Test C pre-/postemergence plant response
Procedure, shortened: as §2

[15] = system: winter wheat (Triticum aestivum); experiment: Test C pre-/postemergence plant response
Procedure, shortened: as §2

[16] = Flood (flooded paddy test), 62 g ai/ha, scale 0 to 100, 0 no effect, 100 complete control
[17] = Flood (flooded paddy test), 125 g ai/ha, scale 0 to 100, 0 no effect, 100 complete control
[18] = Flood (flooded paddy test), 250 g ai/ha, scale 0 to 100, 0 no effect, 100 complete control
[19] = Flood, 31 g ai/ha, scale 0 to 100
[20] = Preemergence, 8 g ai/ha, scale 0 to 100 (0 no effect, 100 complete control)
[21] = Preemergence, 16 g ai/ha, scale 0 to 100 (0 no effect, 100 complete control)
[22] = Preemergence, 62 g ai/ha, scale 0 to 100, 0 no effect, 100 complete control
[23] = Preemergence, 31 g ai/ha, scale 0 to 100 (0 no effect, 100 complete control)
[24] = 8 g ai/ha, scale 0 to 100 (0 no effect, 100 complete control)
[25] = 16 g ai/ha, scale 0 to 100 (0 no effect, 100 complete control)
[26] = 31 g ai/ha, scale 0 to 100 (0 no effect, 100 complete control)
[27] = 62 g ai/ha, scale 0 to 100, 0 no effect, 100 complete control
[28] = Postemergence, 8 g ai/ha, scale 0 to 100, 0 no effect, 100 complete control
[29] = Postemergence, 16 g ai/ha, scale 0 to 100, 0 no effect, 100 complete control
[30] = Postemergence, 31 g ai/ha, scale 0 to 100, 0 no effect, 100 complete control
[31] = Postemergence, 62 g ai/ha, scale 0 to 100, 0 no effect, 100 complete control

Cc1cc(-c2ccc(Cl)cc2)nn1-c1c(OS(=O)(=O)c2ccccc2[N+](=O)[O-])cnn(C)c1=O [Compound 51]
90: Plant response rating, Ryegrass, Italian [3, 21] | Plant response rating, Ryegrass, Italian [3, 22] | Plant response rating, Canarygrass [6, 27]
0: Plant response rating, Ducksalad [1, 16] | Plant response rating, Ducksalad [1, 17] | Plant response rating, Ducksalad [1, 18] | Plant response rating, Ducksalad [1, 19] | Plant response rating, Rice (rice (Oryza sativa); [16]) | Plant response rating, Rice (rice (Oryza sativa); [17]) | Plant response rating, Rice (rice (Oryza sativa); [18]) | Plant response rating, Rice (rice (Oryza sativa); [19]) | Plant response rating, Sedge, Umbrella [2, 19] | Plant response rating, Ryegrass, Italian [3, 20] | Plant response rating, Bluegrass [4, 20] | Plant response rating, Bluegrass [4, 21] | Plant response rating, Bluegrass [4, 23] | Plant response rating, Blackgrass [5, 20] | Plant response rating, Canarygrass [6, 24] | Plant response rating, Canarygrass [6, 25] | Plant response rating, Bromegrass, Downy [7, 20] | Plant response rating, Bromegrass, Downy [7, 21] | Plant response rating, Bromegrass, Downy [7, 23] | Plant response rating, Pigweed [9, 20] | Plant response rating, Pigweed [9, 21] | Plant response rating, Pigweed [9, 23] | Plant response rating, Pigweed [9, 22] | Plant response rating, Barley, Spring [10, 20] | Plant response rating, Wheat, Spring [11, 20] | Plant response rating, Wheat, Spring [11, 21] | Plant response rating, Mustard, Wild [12, 21] | Plant response rating, Mustard, Wild [12, 23] | Plant response rating, Mustard, Wild [12, 22] | Plant response rating, Oat, Wild (wild oat (Avena fatua); [20]) | Plant response rating, Oat, Wild (wild oat (Avena fatua); [21]) | Plant response rating, Windgrass [13, 20] | Plant response rating, Barley, Winter [14, 20] | Plant response rating, Barley, Winter [14, 21] | Plant response rating, Barley, Winter [14, 23] | Plant response rating, Wheat, Winter [15, 20] | Plant response rating, Wheat, Winter [15, 21] | Plant response rating, Wheat, Winter [15, 23]
80: Plant response rating, Canarygrass [6, 26] | Plant response rating, Foxtail, Green [8, 21] | Plant response rating, Windgrass [13, 22]
75: Plant response rating, Wheat, Spring [11, 22]
10: Plant response rating, Bluegrass [4, 22] | Plant response rating, Foxtail, Green [8, 20] | Plant response rating, Windgrass [13, 21]
50: Plant response rating, Bromegrass, Downy [7, 22] | Plant response rating, Oat, Wild (wild oat (Avena fatua); [22])
35: Plant response rating, Blackgrass [5, 21] | Plant response rating, Oat, Wild (wild oat (Avena fatua); [23])
20: Plant response rating, Barley, Spring [10, 23] | Plant response rating, Windgrass [13, 23]
40: Plant response rating, Sedge, Umbrella [2, 16] | Plant response rating, Barley, Winter [14, 22] | Plant response rating, Wheat, Winter [15, 22]
100: Plant response rating, Blackgrass [5, 23] | Plant response rating, Blackgrass [5, 22] | Plant response rating, Foxtail, Green [8, 23] | Plant response rating, Foxtail, Green [8, 22]
60: Plant response rating, Sedge, Umbrella [2, 17] | Plant response rating, Wheat, Spring [11, 23]
70: Plant response rating, Sedge, Umbrella [2, 18] | Plant response rating, Barley, Spring [10, 22]
15: Plant response rating, Barley, Spring [10, 21]

Cc1cc(-c2ccc(Cl)cc2)nn1-c1c(OC(=O)OCC(C)C)cnn(C)c1=O [Compound 57]
45: Plant response rating, Sedge, Umbrella [2, 19]
50: Plant response rating, Bluegrass [4, 23] | Plant response rating, Windgrass [13, 23] | Plant response rating, Wheat, Winter [15, 31]
35: Plant response rating, Bluegrass [4, 31] | Plant response rating, Blackgrass [5, 28]
40: Plant response rating, Bromegrass, Downy [7, 23] | Plant response rating, Foxtail, Green [8, 20] | Plant response rating, Barley, Spring [10, 31] | Plant response rating, Barley, Spring [10, 22]
30: Plant response rating, Bluegrass [4, 30] | Plant response rating, Bluegrass [4, 21] | Plant response rating, Bromegrass, Downy [7, 29] | Plant response rating, Bromegrass, Downy [7, 30] | Plant response rating, Barley, Spring [10, 30] | Plant response rating, Wheat, Winter [15, 29] | Plant response rating, Wheat, Winter [15, 30]
70: Plant response rating, Ducksalad [1, 18] | Plant response rating, Bromegrass, Downy [7, 31]
10: Plant response rating, Rice (rice (Oryza sativa); [17]) | Plant response rating, Bluegrass [4, 29] | Plant response rating, Oat, Wild (wild oat (Avena fatua); [28])
98: Plant response rating, Ryegrass, Italian [3, 29] | Plant response rating, Blackgrass [5, 30]
85: Plant response rating, Ryegrass, Italian [3, 21] | Plant response rating, Blackgrass [5, 21]
20: Plant response rating, Bromegrass, Downy [7, 21] | Plant response rating, Barley, Spring [10, 29] | Plant response rating, Barley, Spring [10, 23] | Plant response rating, Wheat, Spring [11, 20] | Plant response rating, Wheat, Spring [11, 21] | Plant response rating, Barley, Winter [14, 23] | Plant response rating, Wheat, Winter [15, 23]
65: Plant response rating, Sedge, Umbrella [2, 16] | Plant response rating, Ryegrass, Italian [3, 20] | Plant response rating, Bluegrass [4, 22] | Plant response rating, Wheat, Spring [11, 23] | Plant response rating, Windgrass [13, 31] | Plant response rating, Wheat, Winter [15, 22]
100: Plant response rating, Ryegrass, Italian [3, 30] | Plant response rating, Ryegrass, Italian [3, 31] | Plant response rating, Ryegrass, Italian [3, 23] | Plant response rating, Ryegrass, Italian [3, 22] | Plant response rating, Foxtail, Green [8, 29] | Plant response rating, Foxtail, Green [8, 30] | Plant response rating, Foxtail, Green [8, 31] | Plant response rating, Foxtail, Green [8, 21] | Plant response rating, Foxtail, Green [8, 23] | Plant response rating, Foxtail, Green [8, 22] | Plant response rating, Oat, Wild (wild oat (Avena fatua); [31])
80: Plant response rating, Sedge, Umbrella [2, 18] | Plant response rating, Canarygrass [6, 26] | Plant response rating, Bromegrass, Downy [7, 22] | Plant response rating, Oat, Wild (wild oat (Avena fatua); [22])
25: Plant response rating, Wheat, Spring [11, 29]
15: Plant response rating, Rice (rice (Oryza sativa); [18]) | Plant response rating, Oat, Wild (wild oat (Avena fatua); [21]) | Plant response rating, Barley, Winter [14, 29] | Plant response rating, Barley, Winter [14, 30] | Plant response rating, Wheat, Winter [15, 20] | Plant response rating, Wheat, Winter [15, 21]
90: Plant response rating, Canarygrass [6, 27] | Plant response rating, Foxtail, Green [8, 28] | Plant response rating, Wheat, Spring [11, 22] | Plant response rating, Oat, Wild (wild oat (Avena fatua); [29]) | Plant response rating, Oat, Wild (wild oat (Avena fatua); [30]) | Plant response rating, Barley, Winter [14, 31]
60: Plant response rating, Oat, Wild (wild oat (Avena fatua); [23]) | Plant response rating, Barley, Winter [14, 22]
0: Plant response rating, Ducksalad [1, 16] | Plant response rating, Ducksalad [1, 17] | Plant response rating, Rice (rice (Oryza sativa); [16]) | Plant response rating, Rice (rice (Oryza sativa); [19]) | Plant response rating, Bluegrass [4, 28] | Plant response rating, Bluegrass [4, 20] | Plant response rating, Canarygrass [6, 24] | Plant response rating, Bromegrass, Downy [7, 28] | Plant response rating, Bromegrass, Downy [7, 20] | Plant response rating, Pigweed [9, 28] | Plant response rating, Pigweed [9, 29] | Plant response rating, Pigweed [9, 30] | Plant response rating, Pigweed [9, 31] | Plant response rating, Pigweed [9, 20] | Plant response rating, Pigweed [9, 21] | Plant response rating, Pigweed [9, 23] | Plant response rating, Pigweed [9, 22] | Plant response rating, Barley, Spring [10, 28] | Plant response rating, Barley, Spring [10, 20] | Plant response rating, Barley, Spring [10, 21] | Plant response rating, Wheat, Spring [11, 28] | Plant response rating, Mustard, Wild [12, 28] | Plant response rating, Mustard, Wild [12, 29] | Plant response rating, Mustard, Wild [12, 30] | Plant response rating, Mustard, Wild [12, 31] | Plant response rating, Mustard, Wild [12, 20] | Plant response rating, Mustard, Wild [12, 21] | Plant response rating, Mustard, Wild [12, 23] | Plant response rating, Mustard, Wild [12, 22] | Plant response rating, Oat, Wild (wild oat (Avena fatua); [20]) | Plant response rating, Windgrass [13, 28] | Plant response rating, Windgrass [13, 29] | Plant response rating, Windgrass [13, 30] | Plant response rating, Windgrass [13, 20] | Plant response rating, Windgrass [13, 21] | Plant response rating, Barley, Winter [14, 28] | Plant response rating, Barley, Winter [14, 20] | Plant response rating, Barley, Winter [14, 21] | Plant response rating, Wheat, Winter [15, 28]
75: Plant response rating, Sedge, Umbrella [2, 17] | Plant response rating, Ryegrass, Italian [3, 28] | Plant response rating, Blackgrass [5, 29] | Plant response rating, Blackgrass [5, 20] | Plant response rating, Canarygrass [6, 25] | Plant response rating, Wheat, Spring [11, 30] | Plant response rating, Wheat, Spring [11, 31] | Plant response rating, Windgrass [13, 22]
95: Plant response rating, Blackgrass [5, 23] | Plant response rating, Blackgrass [5, 22]
